Tests used:
[1] = stabilization test for active sulfur molecules (residual GS-SS-SG by LC-MS/MS); type: physicochemical; conditions: 1 mM alkylating agent, 10 μM GS-SS-SG, pH 7.0, 37° C., FIG. 6; for active sulfur molecules stabilization (inhibition of GS-SS-SG autolysis): up to 4 hours
Procedure: Next, the stabilization effect of active sulfur molecules of each alkylating agent containing the new tyrosine derivative was evaluated. Oxidized glutathione tetrasulfide (GS-SS-SG) was used as a model compound for the active sulfur molecules.
The following were mixed: 50 μL of 200 mM phosphate buffer (pH 7.0) (final concentration: 100 mM), 5 μL of 20 mM alkylating agent (TME-IAM, HPE-IAM, MBB, IAM) or DMSO (final concentration: 1 mM), 10 μL of 100 μM GS-SS-SG (final concentration: 10 μM), and 35 μL of ultrapure water; and the mixture was incubated at 37° C. while shielding light. One, 2, 3, and 4 hours after the start of the reaction, 10 μL of the reaction solution and 90 μL of 0.1% formic acid were mixed, thereby terminating the reaction. By performing the LC-MS/MS by using unreacted 1 μM GS-SS-SG as standard, a residual amount of the GS-SS-SG in the reaction solution was analyzed.

[2] = reactivity with cysteine hydropolysulfide, adducts by LC-ESI-MS/MS; type: physicochemical; conditions: 1 mM agent, one hour at 37° C., CysS-(S)n—H from 100 μM cystine and 300 μM Na2S2; FIG. 10
Procedure: The reactivity of TME-IAM with respect to cysteine hydropolysulfide [CysS-(S)n—H] was verified as compared to HPE-IAM as indicated below.
CysSSH/CysS-(S)n—H which was prepared by incubating 100 μM cystine and 300 μM Na2S2 for 5 minutes at 37° C. was made to react with TME-IAM or HPE-IAM (1 mM each) for one hour at 37° C.
Next, its reaction mixture was provided to the LC-ESI-MS/MS analysis and respective adducts for CysSH/CysS-(S)n—H and HS^− (bis-S-adduct) were detected.
Incidentally, the concentration of each compound as sulfur is calculated according to the following formula: a concentration as sulfur=a concentration as the compound×the number of sulfur atoms in the compound (for example, in a case of CysSSH, the concentration as sulfur=2×[CysSSH]). Referring to FIG. 10, the concentrations of each adduct as the compound and sulfur are indicated as a bar with slanted stripes and a bar without stripes, respectively.

[3] = reactivity with hydrogen sulfide (Na2S), adducts by LC-ESI-MS/MS; type: physicochemical; conditions: 0.1 mM or 1 mM agent, 0.1 mM Na2S, one hour at 37° C.; FIG. 12
Procedure: The incubation of 0.1 mM or 1 mM TME-IAM (right side in FIG. 12) or MBB (left side in FIG. 12) was performed for one hour at 37° C. under the existence of 0.1 mM Na2S. As a result, the HS-adduct and the bis-S-adduct in the reaction mixture were respectively detected by the LC-ESI-MS/MS analysis.
The reaction mixture was separated by the Alliance e2695 system equipped with a YMC-Triart C18 column (inside diameter. 50×2.0 mm) and was then eluted with a linear gradient (30-99% for 5 minutes) by using methanol as a mobile phase under the existence of 0.1% FA (formic acid) at a flow speed of 0.3 mL/min at 40° C.

[4] = 37° C., neutral pH (pH 7.0); stated as known; cited from earlier work
[5] = GS-SS-SG protection effect of N-iodoacetyl tyrosine; type: physicochemical; conditions: compared with TME-IAM; FIG. 13
Description: Incidentally, N-iodoacetyl tyrosine is expressed with the following chemical formula.

[6] = reactivity of alkylating agents with cysteine (LC-MS/MS of residual cysteine and cysteine adducts); type: physicochemical; conditions: 1 mM alkylating agent, 0.1 mM cysteine, phosphate buffer pH 7.5, 37° C., 1, 3 and 8 hours; FIG. 5
Procedure: Next, the reactivity between the tyrosine derivative according to the present invention and the active sulfur species was examined.
The following were mixed: 50 μL of 200 mM phosphate buffer (pH 7.5) (final concentration: 50 mM), 2 μL of 100 mM alkylating agent (TME-IAM, TEE-IAM, NAT-IAM, HPE-IAM) or DMSO (final concentration: 1 mM), 2 μL of 10 mM cysteine (final concentration: 0.1 mM), and 146 μL of ultrapure water, and the mixture was incubated at 37° C. while shielding light. One, 3, and 8 hours after the start of the reaction, 10 μL of the reaction solution and 90 μL of 0.1% formic acid were mixed, thereby terminating the reaction. By performing the LC-MS/MS by using unreacted 10 μM cysteine as standard, a residual amount of the cysteine in the reaction solution was analyzed and the generation of cysteine adducts by various kinds of alkylating agents was analyzed.

[7] = stabilization of oxidized glutathione polysulfides with different numbers of sulfur atoms; type: physicochemical; conditions: 1 mM TME-IAM, 10 μM GS-SSS-SG, pH 7.0, 37° C., 30 minutes after the processing; FIG. 9
Procedure: It has been made clear that compounds with different quantities of sulfur atoms included in the molecules exist in the active sulfur molecules. In general, the compound including a larger number of sulfur atoms has higher reactivity and has unstable molecules. So, the active sulfur molecules stabilization effect of TME-IAM was analyzed by using the active sulfur molecules with different quantities of the contained sulfur atoms. For this analysis, oxidized glutathione pentasulfide (GS-SSS-SG) and oxidized glutathione trisulfide (GS-S-SG) were used in addition to GS-SS-SG.
The following were mixed: 50 μL of 200 mM phosphate buffer (pH 7.0) (final concentration: 100 mM) and 5 μL of […] TME-IAM solution (final concentration: 1 mM), 10 μL of 100 μM oxidized form glutathione polysulfide (GS-SSS-SG, GS-SS-SG, GS-S-SG) (final concentration: 10 μM), and 35 μL of ultrapure water; and the mixture was incubated at 37° C. while shielding light. […] By performing the LC-MS/MS analysis by using each unreacted 1 μM oxidized form glutathione polysulfide (GS-SSS-SG, GS-SS-SG, GS-S-SG) as standard, a residual amount of the oxidized form glutathione polysulfide GS-SSS-SG, GS-SS-SG, GS-S-SG) in the reaction solution was analyzed.

[8] = esterase-dependent by-product formation in mice liver homogenate in 80% methanol; type: in vitro ADME; conditions: mice liver tissues homogenized in 80% methanol containing 1 mM TME-IAM, one hour at 37° C.; FIG. 11B
Procedure: (§1) The following test was conducted with regard to cell permeability and esterase sensitivity of TME-IAM. FIG. 11 illustrates representative mass chromatographs of (A) HEK (human embryonic kidney) 293T cells and (B) mice liver homogenate which were processed with TME-IAM.
(§2) After processing the HEK 293T cells for one hour at 37° C. by using 1 mM TME-IAM, they were homogenized by ultrasonication in 80% methanol. The mice liver tissues were also homogenized by ultrasonication in 80% methanol containing 1 mM TME-IAM and were incubated for one hour at 37° C. After centrifugal separation of each of them, the obtained supernatant was collected and then diluted to 10 times by using 0.1% FA (formic acid).
(§3) Next, the mixture was made to undergo the LC-ESI-MS/MS analysis and individual by-products driving from TME-IAM, its glutathione adduct (GS-AM-TME), and esterase dependency cleavage were detected. They are Tyr-IAM ((2-iodoacetyl)-I-tyrosine) and GS-AM-Tyr (GSH adduct of (2-iodoacetyl)-1-tyrosine), respectively.
Accordingly, in order to evaluate the possibility of forming these derivatives when in vivo samples are used for the reactivity sulfur metabolome analysis, mice liver tissues were prepared in 80% methanol containing 1 mM TME-IAM, homogenized, and incubated for one hour at 37° C., and the obtained samples were analyzed by LC-ESI-MS/MS.

[9] = pH influence test for the GS-SS-SG protection effect; type: physicochemical; conditions: one hour, FIG. 7
Procedure: Next, the pH influence of the GS-SS-SG protection effect of TME-IAM was evaluated. It has been clarified that the active sulfur molecules GS-SS-SG are stable under acid conditions, while they are very unstable under alkali conditions.
The following were mixed: 50 μL of 200 mM phosphate buffer (pH 7.0, 7.5, 8.0) (final concentration: 100 mM) and 5 μL of 20 mM TME-IAM solution (final concentration: 1 mM), 10 μL of 100 μM GS-SS-SG (final concentration: 10 μM), and 35 μL of ultrapure water; and the mixture was incubated at 37° C. while shielding light. One hour after the start of the reaction, 10 μL of the reaction solution and 90 μL of 0.1% formic acid were mixed, thereby terminating the reaction. By performing the LC-MS/MS analysis by using unreacted 1 μM GS-SS-SG as standard, a residual amount of GS-SS-SG in the reaction solution was analyzed.

[10] = reaction mole ratio (processing concentration) influence test for the GS-SS-SG protection effect; type: physicochemical; conditions: 400-fold higher concentration than GS-SS-SG (10 μM), pH 7.0, 37° C., one hour; FIG. 8
Procedure: In order to detect the active sulfur molecules with high sensitivity, it is important to form a stable derivative. In order to do so, it is necessary to add a high-concentration alkylating agent to a specimen; and it is known that the addition of the high-concentration alkylating agent promotes the decomposition of the active sulfur molecules (NPL 1). So, processing concentration dependency of the active sulfur molecules stabilization activity of TME-IAM was analyzed by using the active sulfur molecules GS-SS-SG.
The following were mixed: 50 μL of 200 mM phosphate buffer (pH 7.0) (final concentration: 100 mM) and 5-20 μL of a TME-IAM solution (final concentration: 0.25, 0.5, 1, 2, 4 mM), 10 μL of 100 μM GS-SS-SG (final concentration: 10 μM), and 20-35 μL of ultrapure water; and the mixture was incubated at 37° C. while shielding light. One hour after the start of the reaction, 10 μL of the reaction solution and 90 μL of 0.1% formic acid were mixed, thereby terminating the reaction. By performing the LC-MS/MS analysis by using unreacted 1 μM GS-SS-SG as standard, a residual amount of GS-SS-SG in the reaction solution was analyzed.

[11] = test system: HEK (human embryonic kidney) 293T cells; test: cell permeability and esterase sensitivity in HEK 293T cells; type: cell-based; conditions: 1 mM TME-IAM, one hour at 37° C., FIG. 11A
Procedure: as §1, §2, §3

Q: For O=C(CI)NCCc1ccc(O)cc1 [HPE-IAM, f-(4-hydroxyphenyl) ethyl iodoacetamide, reference compound], which “active sulfur molecules stabilization (inhibition of GS-SS-SG autolysis)” value [1] is on record?
A: inhibited significantly

Q: What about the “amount of HS− (bis-S adduct) decomposition product” value [2] of the same compound?
A: prominently higher than the amount of the product detected by using TME-IAM

Q: What does the source list for Cc1c(C)n2c(CBr)c(C)c(=O)n2c1=O [MBB, monobromobimane, reference compound]?
A: reactivity with hydrogen sulfide [3]: react with hydrogen sulfide and form the bis-S-adduct; effect on decomposition of GS-SS-SG [4]: decomposition is promoted

Q: For O=C(CI)N[C@@H](Cc1ccc(O)cc1)C(=O)O [N-iodoacetyl tyrosine], which GS-SS-SG protection effect [5] is on record?
A: same level of the GS-SS-SG protection effect as that of TME-IAM

Q: With CC(=O)NC(Cc1ccc(O)cc1)C(=O)NC(=O)CI (stereo not drawn) [NAT-IAM] as the compound, how does the “reactivity with the thiol group (cysteine)” value (shortened to “reactivity … (cysteine)”) [6] read?
A: lower reactivity with cysteine than that of TME-IAM and HPE-IAM

Q: For CCOC(=O)C(Cc1ccc(O)cc1)NC(=O)CI (stereo not drawn) [TEE-IAM], which “reactivity … (cysteine)” value [6] is on record?
A: lower reactivity with cysteine than that of TME-IAM and HPE-IAM

Q: With COC(=O)[C@H](Cc1ccc(O)cc1)NC(=O)CI [TME-IAM, N-iodoacetyl tyrosine methyl ester] as the compound, how does the “reactivity … (cysteine)” value [6] read?
A: same level of reactivity with the thiol group (cysteine) as that of HPE-IAM

Q: What about the “decomposition suppression of GS-SSS-SG” value [7] of the same compound?
A: predominant decomposition suppression

Q: What about the GS-SS-SG remained ([1]; incubation for 4 hours) of the same compound?
A: approximately 80%

Q: What about the “active sulfur molecules stabilization (inhibition of GS-SS-SG autolysis)” value [1] of the same compound?
A: high active sulfur molecules stabilization activity

Q: What about the “esterase-dependent by-product Tyr-IAM in samples” value [8] of the same compound?
A: rarely detected

Q: What about the “amounts of CysSSH and CysSSSH detected” value [2] of the same compound?
A: significantly larger than those detected by using HPE-IAM

Q: What about the GS-SS-SG remained ([9]; 1 mM TME-IAM, 10 μM GS-SS-SG, weakly alkaline solution (pH 8.0), 37° C.) of the same compound?
A: approximately 70%

Q: And the “GS-SS-SG remaining compared with HPE-IAM” value ([9]; pH 8.0, 37° C.)?
A: higher value than that of the system to which the publicly known iodoacetamide derivative HPE-IAM was added

Q: What about the “reduction of GS-SS-SG at high alkylating agent concentration” value [10] of the same compound?
A: any significant reduction of GSSSSG was not observed

Q: And the “reactivity with hydrogen sulfide” value [3]?
A: react with hydrogen sulfide and form the bis-S-adduct

Q: What about the cell permeability [11] of the same compound?
A: can permeate through cell membranes
